Laboratory results reported in patent US20180092360A1, “MICROBICIDAL COMPOSITION” (Dow Global Technologies LLC, priority 2015, published 2018).
Read-outs that look alike come from different tables or passages of the source.

Tested on: bacterial pool of seven organisms
Assay: Dow time-kill test in pH 7.4 hand dish-washing liquid, with Kull synergy index
Type: cell-based
Conditions: for Concentration required to achieve >=4 Log bacterial counts reduction: bacterial pool, pH 7.4 hand dish-washing liquid, 37° C., active ingredient basis
Experimental: Four biocides and their combinations were tested at different concentration ranges. […] All biocide solutions were prepared and diluted in sterile DI water and used within 2 hours. These biocides are commercially available from The Dow Chemical Company. [table] A bacteria pool was used for testing. 24 hr bacterial cultures were obtained in TSB (Tryptic Soy Broth) media at 37° C. incubation for the seven organisms. The bacterial pool of seven organisms was prepared by taking equal parts of a 24 hour stationary phase aliquot from each bacterial culture and mixing them together. […] The time-kill tests were carried out to determine the threshold concentration of the biocide products in pH 7.4 hand dish-washing liquid. […] Biocides were then added into this bacterial suspension at various levels and mixed immediately. The mixed samples were then incubated at 37° C. At 24 hrs, viable bacteria remaining in the hand dish-washing samples were determined by 1:10 serial dilutions, transferring 20 ul aliquot of each sample into 180 ul TSB/Resazurin media. Triplicate tests were conducted. MPN method was used to determine the microbial concentration at after 24 hours incubation at 37° C. […] One measure of synergism is the industrially accepted method described by Kull, […]. and Mayer, R. L., in Applied Microbiology 9:538-541 (1961), using the ratio determined by the formula: Qa/QA+Qb/QB=Synergy Index (“SI”) wherein: • QA=concentration of compound A (first component) in ppm, acting alone, which produced an end point (MIC of Compound A). • Qa=concentration of compound A in ppm, in the mixture, which produced an end point. • QB=concentration of compound B (second component) in ppm, acting alone, which produced an end point (MIC of Compound B). • Qb=concentration of compound B in ppm, in the mixture, which produced an end point. When the sum of Qa/QA and Qb/QB is greater than one, antagonism is indicated. […] The lower the SI, the greater the synergy shown by that particular mixture. The minimum inhibitory concentration (MIC) of a microbicide is the lowest concentration tested under a specific set of conditions that prevents the growth of added microorganisms.

Compound	MIC (24 h, read-out: Minimum Inhibitory Concentration (ppm) MIT) [µg/mL]	Concentration required to achieve >=4 Log bacterial counts reduction (24 h) [ppm]	Minimum Inhibitory Concentration (ppm) SOPP (Bacterial Pool, 24 hours, SOPP alone (QB) or SOPP in mixture with BIT (Qb)) [ppm]	Minimum Inhibitory Concentration (ppm) SOPP (Bacterial Pool, 24 hours, SOPP alone (QB) or SOPP in mixture with CMIT/MIT (Qb)) [ppm]	Minimum Inhibitory Concentration (ppm) SOPP (Bacterial Pool, 24 hours, SOPP alone (QB) or SOPP in mixture with MIT (Qb)) [ppm]	MIC (Bacterial Pool, 24 hours, BIT alone (QA) or BIT in mixture with SOPP (Qa), read-out: Minimum Inhibitory Concentration (ppm) BIT) [µg/mL]
Cn1sccc1=O [MIT, 2-Methylisothiazol-3-one]	> 95	>95	–	–	–	–
[Na+].[O-]c1ccccc1-c1ccccc1 [SOPP, sodium orthophenylphenate]	–	358.5	358.5	358.5	358.5	–
O=c1[nH]sc2ccccc12 [BIT, 1,2-benzisothiazol-3-one]	–	400	–	–	–	400
